8 compounds from patent publication US20240270762A1, “PENICILLIN-BINDING PROTEIN INHIBITORS” (priority 2021, published 2024) can be followed below.

One assay deals with N. gonorrhoeae WHO Q. Nature of the assay: Liquid broth MIC in Fastidious broth. The following applies: Neisseria gonorrhoeae, read-out: Minimum Inhibitory Concentration (MIC), N. gonorrhoeae WHO Q.
Another assay deals with E. coli AG100A. The assay can be described thus: Broth microdilution MIC in CAMHB. Type of assay: cell-based. The following applies: Escherichia coli, read-out: MIC E. coli AG100A. Background: In broth dilution the organism is exposed to a series of concentrations in liquid medium.
The subject of a further assay is N. gonorrhoeae WHO M. Nature of the assay: Liquid broth MIC in Fastidious broth. Particulars: Neisseria gonorrhoeae, read-out: Minimum Inhibitory Concentration (MIC), N. gonorrhoeae WHO M.
The test system of a further assay is K. pneumoniae 848844. Nature of the assay: microbe, parasite or virus in culture. Particulars: Klebsiella pneumoniae, 848844, read-out: MIC K. pneumoniae 848844. Type of assay: cell-based.
Assay [1] relates to N. gonorrhoeae ATCC 49226. Nature of the assay: Liquid broth MIC in Fastidious broth. The following applies: Neisseria gonorrhoeae, ATCC49226, read-out: Minimum Inhibitory Concentration (MIC), N. gonorrhoeae ATCC 49226.
Description: Additional antibacterial testing of the series was performed in 8 reference strains of N. gonorrhoeae (ATCC 49226, FA1090, MS 11, WHO G, WHO L, WHO M, WHO K, WHO X, WHO Z, WHO Q, CDC-0197). ATCC 49226, FA1090, MS11, WHO G, WHO L, and WHO M produce wild type or wild-type like PBP2. WHO K, WHO X, WHO Z, WHO Q, and CDC-0197 produce mosaic PBP2. Liquid broth-based assays were used for antibacterial testing of PBP inhibitors in Neisseria gonorrhoeae. Briefly, cryo-preserved bacterial cultures of clinical strains were streaked for isolation on Chocolate Agar (72 g/L (2×) GC Agar Base (BD #228950) and 2% (2×) Hemoglobin was autoclaved at 121° C. for 20 minutes to sterilize. Once cooled to ˜50° C. the 2×GC Agar Base and 2× Hemoglobin solutions are combined and 1% IsoVitaleX Enrichment (BD #211876) was added to the solution). Strains were incubated at 36° C. and 5% CO2 to allow growth of colonies, 24 hours before inoculum preparation. 2-fold serial dilutions of test compounds were conducted in a 96 well plate with a final volume of 75 μL per well at 2-fold the final desired concentration in Fastidious broth (Remel #R07664). For preparation of assay inoculum, a direct suspension was prepared by aseptically swabbing 10-15 colonies from agar plates into culture tubes containing 2 mL of fresh sterile saline. After the dilution plates were set up, direct suspensions were then diluted in a cuvette containing sterile saline and the optical density was measured at 600 nm. Inocula were diluted such that 75 μL of this culture in Fastidious broth results in a starting bacterial concentration of 5×10^5 CFU/mL when added to the dilution plates. The plates were incubated for ˜24 hours at 36° C. and 5% CO2.
The test system of another assay is N. gonorrhoeae CDC-0197. Nature of the assay: Liquid broth MIC in Fastidious broth. The following applies: Neisseria gonorrhoeae, CDC0197, read-out: Minimum Inhibitory Concentration (MIC), N. gonorrhoeae CDC-0197.
The subject of assay [2] is P. aeruginosa (ΔmexAB-oprM). Nature of the assay: Broth microdilution MIC in CAMHB. Format: cell-based. The following applies: Pseudomonas aeruginosa; read-out: MIC P. aeruginosa ΔmexAB-oprM.
The target in assay [3] is T1, PBP3 from Escherichia coli (K-12) (Escherichia coli, UniProt P0AD68).
T1 construct: made in house
T1 sequence (P0AD68 1-577): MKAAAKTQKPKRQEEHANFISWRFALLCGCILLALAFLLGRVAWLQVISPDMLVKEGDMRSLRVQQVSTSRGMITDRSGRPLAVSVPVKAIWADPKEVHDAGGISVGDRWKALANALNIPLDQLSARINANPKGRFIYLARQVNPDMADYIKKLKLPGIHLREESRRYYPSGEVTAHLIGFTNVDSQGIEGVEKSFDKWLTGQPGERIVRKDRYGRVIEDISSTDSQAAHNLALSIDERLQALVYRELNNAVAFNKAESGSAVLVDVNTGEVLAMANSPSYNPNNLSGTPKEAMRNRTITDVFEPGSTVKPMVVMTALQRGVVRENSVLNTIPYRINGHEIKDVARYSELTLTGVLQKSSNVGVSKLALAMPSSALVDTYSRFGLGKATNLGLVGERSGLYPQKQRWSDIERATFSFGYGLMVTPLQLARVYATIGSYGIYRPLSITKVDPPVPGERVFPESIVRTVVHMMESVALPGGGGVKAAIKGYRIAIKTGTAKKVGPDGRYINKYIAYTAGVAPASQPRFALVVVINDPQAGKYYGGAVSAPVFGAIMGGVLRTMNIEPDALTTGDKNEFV
The assay can be described thus: Bocillin-FL fluorescence polarization competition binding, E. coli PBP3. The text has this:
To determine the ability of boronic acid-based test PBP inhibitors to bind Penicillin Binding Proteins (PBPs), Bocillin-FL (fluorescently-labeled penicillin V; ThermoFisher Scientific) was used in a fluorescence polarization (FP) competition binding assay to assess inhibitor binding to PBP3 from Escherichia coli (K-12), PBP3 from Pseudomonas aeruginosa (PAO1), PBP1a and PBP3 from Acinetobacter baumannii (ATCC 19606), and PBP2 from Neisseria gonorrhoeae (FA19). PBPs were cloned and purified as described previously (E. coli PBP3, King, D. T, et al., ACS Infectious Diseases 2015, 1, 175-184; P. aeruginosa PBP3, Han et. al., PNAS 2010, 107 (51), 22002-22007; A. baumannii PBPs, Penwell et. al., Antimicrob. Agents Chemother. 2015, 59 (3), 1680-1689; N. gonorrhoeae PBP2, Singh et. al., J. Biol. Chem. 2019, 294 (38), 14020-14032). To establish assay conditions for competition binding, enzyme titration/saturation binding experiments were initially performed. Bocillin-FL was prepared at 0.2 μM in a buffer comprised of 50 mM Hepes (pH 8.0), 300 mM NaCl and 10% (v/v) glycerol for reactions with E. coli, P. aeruginosa and N. gonorrhoeae PBPs, and 25 mM Tris (pH 8.0), 200 mM NaCl, 10% (v/v) glycerol and 0.005% (v/v) Tween 20 for reactions with A. baumannii PBPs. Saturation binding was performed by mixing 40 μl of PBP solutions ranging in concentrations from 0-24 μM with 40 μl of the 0.2 μM Bocillin-FL solution, in individual wells of a black 384-well microplate. FP was measured immediately upon mixing (Excitation, 490 nm; Emission, 520 nm; g-factor, 0.96), using a Cytation3 (BioTek) microplate reader and measured continuously for up to 120 minutes. The FP response stabilized after 15 minutes for P. aeruginosa and A. baumannii PBP3, 30 minutes for E. coli PBP3 and A. baumannii PBP1a, and less than 1 minute for N. gonorrhoeae PBP2. […] The competition binding assay (80 μl final volume) was validated using beta-lactams and PBPs at final concentrations of: 1.5 μM for E. coli PBP3; 0.75 μM for P. aeruginosa PBP3; 1 μM for A. baumannii PBP1a; 0.2 μM for A. baumannii PBP3; and 0.25 μM for N. gonorrhoeae PBP2. Bocillin-FL was at 0.1 μM (0.05 μM with A. baumannii PBP1a) and beta-lactam concentrations ranged from 0-1,000 μM. E. coli PBP3 was incubated with increasing concentrations of ampicillin in a black 384-well microplate (Corning) for 30 minutes. P. aeruginosa PBP3 was incubated for 15 minutes with aztreonam, whereas A. baumannii PBP1a and PBP3 were incubated for 15 minutes with meropenem, and then Bocillin-FL was added followed immediately by the FP measurement for up to 60 minutes. […] The beta-lactam potency was reported as the concentration of beta-lactam required to reduce the amount of PBP bound-Bocillin-FL by 50% (EC50). […] The EC50 of aztreonam was determined to be <0.5 μM for P. aeruginosa PBP3. […] Binding assays for boronic acid PBP inhibitors were performed in an identical fashion for the respective PBPs.

The target in assay [4] is T2, PBP3 from Pseudomonas aeruginosa (PAO1) (Pseudomonas aeruginosa, UniProt G3XD46).
T2 construct: made in house
T2 sequence (G3XD46 whole entry): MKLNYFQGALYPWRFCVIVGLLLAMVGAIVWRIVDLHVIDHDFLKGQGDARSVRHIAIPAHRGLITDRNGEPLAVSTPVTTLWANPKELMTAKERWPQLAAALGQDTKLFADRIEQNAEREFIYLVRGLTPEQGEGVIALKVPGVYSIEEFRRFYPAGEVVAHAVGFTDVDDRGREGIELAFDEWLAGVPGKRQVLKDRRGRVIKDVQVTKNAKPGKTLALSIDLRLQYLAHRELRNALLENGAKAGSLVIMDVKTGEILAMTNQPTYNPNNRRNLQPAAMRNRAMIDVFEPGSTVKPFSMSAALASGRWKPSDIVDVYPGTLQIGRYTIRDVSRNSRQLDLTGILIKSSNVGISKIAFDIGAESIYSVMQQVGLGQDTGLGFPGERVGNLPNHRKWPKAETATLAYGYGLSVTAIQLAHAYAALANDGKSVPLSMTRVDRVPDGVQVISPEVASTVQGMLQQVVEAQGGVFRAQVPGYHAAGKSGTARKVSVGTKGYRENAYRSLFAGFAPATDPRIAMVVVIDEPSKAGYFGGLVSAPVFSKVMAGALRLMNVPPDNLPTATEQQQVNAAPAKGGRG
The assay can be described thus: Bocillin-FL fluorescence polarization competition binding, P. aeruginosa PBP3. Particulars: Binding affinity to P. aeruginosa PBP3; fluorescence polarization competition binding assay using Bocillin-FL; read-out: P. aeruginosa PBP3 Potency. The method, boiled down: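 Purified PBPs pre-incubated with inhibitor (E. coli PBP3 1.5 μM, 30 min; P. aeruginosa PBP3 0.75 μM, A. baumannii PBP1a 1 μM and PBP3 0.2 μM, 15 min), then Bocillin-FL 0.1 μM (0.05 μM for PBP1a) added; FP read up to 60 min. EC50 = concentration halving bound Bocillin-FL.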
For orientation: Fluorescence polarisation rises when a labelled molecule tumbles more slowly, as on binding a larger partner.

Another assay relates to A. baumannii ATCC 19606. Nature of the assay: microbe, parasite or virus in culture. Format: cell-based. The following applies: Acinetobacter baumannii, ATCC19606, read-out: MIC, A. baumannii ATCC 19606.
A further assay relates to N. gonorrhoeae WHO X. The assay can be described thus: Liquid broth MIC in Fastidious broth. Particulars: Neisseria gonorrhoeae, read-out: Minimum Inhibitory Concentration (MIC), N. gonorrhoeae WHO X.
The subject of the next assay is E. coli ATCC 25922. Nature of the assay: microbe, parasite or virus in culture. Type of assay: cell-based. Particulars: Escherichia coli, ATCC25922, read-out: MIC E. coli 25922.

In brackets after ≈: the same amount, converted by molar mass.

As for `Nc1ncc(C(=O)N[C@@H](C(=O)N[C@H]2Cc3cccc(C(=O)O)c3OB2O)c2ccc(P(=O)(O)O)cc2)s1` (racemic) [Example 50, (R)-3-((S)-2-(2-aminothiazole-5-carboxamido)-2-(4-phosphonophenyl)acetamido)-2-hydroxy-3,4-dihydro-2H-benzo[e][1,2]oxaborinine-8-carboxylic acid and (R)-3-((R)-2-(2-aminothiazole-5-carboxamido)-2-(4-phosphonophenyl)acetamido)-2-hydroxy-3,4-dihydro-2H-benzo[e][1,2]oxaborinine-8-carboxylic acid], the MIC in the assay on N. gonorrhoeae WHO Q was 16 to 32 µg/mL (≈ 29.3 to 58.6 µM); in the assay on E. coli AG100A, > 128 µg/mL; in the assay with N. gonorrhoeae WHO M it was 1 to 2 µg/mL (≈ 1.83 to 3.66 µM); with K. pneumoniae 848844, > 128 µg/mL; in [1] it was 4 to 8 µg/mL (≈ 7.32 to 14.6 µM); in the assay with N. gonorrhoeae CDC-0197 it was 16 to 32 µg/mL (≈ 29.3 to 58.6 µM). The MIC in assay [2] is 32 to 64 µg/mL (≈ 58.6 to 117 µM); with A. baumannii ATCC 19606 it was > 128 µg/mL; in the assay with N. gonorrhoeae WHO X, 16 to 32 µg/mL (≈ 29.3 to 58.6 µM); in the assay on E. coli ATCC 25922 it was > 128 µg/mL. In addition, the half-maximal effective concentration (EC50) in assay [3] lay in the range of 50 to 250 µM. Also, the IC50 in assay [4] is < 10 µM.

As for `CCN1CCN(C(=O)N[C@@H](C(=O)N[C@H]2Cc3cccc(C(=O)O)c3OB2O)c2ccc(P(=O)(O)O)c(F)c2)C(=O)C1=O` (single isomer, unassigned) [Example 7], the MIC is < 1 µg/mL with N. gonorrhoeae WHO Q; 8 to 16 µg/mL (≈ 13.2 to 26.4 µM) with E. coli AG100A; < 1 µg/mL with N. gonorrhoeae WHO M; > 128 µg/mL in the assay with K. pneumoniae 848844; < 1 µg/mL in [1]; < 1 µg/mL in the assay on N. gonorrhoeae CDC-0197. Also, the MIC is 8 to 16 µg/mL (≈ 13.2 to 26.4 µM) in [2], 8 to 16 µg/mL (≈ 13.2 to 26.4 µM) in the assay with A. baumannii ATCC 19606, < 1 µg/mL in the assay on N. gonorrhoeae WHO X and 32 to 64 µg/mL (≈ 52.8 to 106 µM) with E. coli ATCC 25922. In addition, the EC50 in assay [3] is < 10 µM.

On to `O=C(O)c1c(F)ccc2c1OB(O)[C@@H](NC(=O)C(NC(=O)N1CCN(Cc3ccc(O)c(O)c3Cl)C(=O)C1=O)c1ccc(P(=O)(O)O)c(F)c1)C2` (stereo partly drawn) [Example 23, (3R)-3-(2-(4-(2-chloro-3,4-dihydroxybenzyl)-2,3-dioxopiperazine-1-carboxamido)-2-(3-fluoro-4-phosphonophenyl)acetamido)-7-fluoro-2-hydroxy-3,4-dihydro-2H-benzo[e][1,2]oxaborinine-8-carboxylic acid], for which the MIC in the assay with N. gonorrhoeae WHO Q is < 1 µg/mL; in the assay on N. gonorrhoeae WHO M it was < 1 µg/mL; in [1], < 1 µg/mL; in the assay with N. gonorrhoeae CDC-0197 it was < 1 µg/mL; with N. gonorrhoeae WHO X, 1 to 2 µg/mL (≈ 1.33 to 2.66 µM). The EC50 in [3] is < 10 µM. The IC50 in [4] is < 10 µM.

With `O=C(O)c1cccc2c1OB(O)[C@@H](NC(=O)C(NC(=O)N1CCN(Cc3ccc(O)c(O)c3Cl)C(=O)C1=O)c1ccc(P(=O)(O)O)cc1)C2` (stereo partly drawn) [Example 24, (3R)-3-(2-(4-(2-chloro-3,4-dihydroxybenzyl)-2,3-dioxopiperazine-1-carboxamido)-2-(4-phosphonophenyl)acetamido)-2-hydroxy-3,4-dihydro-2H-benzo[e][1,2]oxaborinine-8-carboxylic acid], the MIC with N. gonorrhoeae WHO Q was 1 to 2 µg/mL (≈ 1.4 to 2.79 µM); in the assay with N. gonorrhoeae WHO M it was < 1 µg/mL; in assay [1] it was < 1 µg/mL; with N. gonorrhoeae CDC-0197, 1 to 2 µg/mL (≈ 1.4 to 2.79 µM); in the assay with N. gonorrhoeae WHO X, 16 to 32 µg/mL (≈ 22.3 to 44.6 µM). Besides, the half-maximal effective concentration (EC50) in assay [3] was < 10 µM. Besides, the IC50 in assay [4] is < 10 µM.

For `O=C(O)c1c(F)ccc2c1OB(O)[C@@H](NC(=O)C(NC(=O)N1CCN(Cc3cc(F)c(O)c(O)c3Cl)C(=O)C1=O)c1ccc(P(=O)(O)O)cc1)C2` (stereo partly drawn) [Example 45, (3R)-3-(2-(4-(2-chloro-5-fluoro-3,4-dihydroxybenzyl)-2,3-dioxopiperazine-1-carboxamido)-2-(4-phosphonophenyl)acetamido)-7-fluoro-2-hydroxy-3,4-dihydro-2H-benzo[e][1,2]oxaborinine-8-carboxylic acid], the MIC in the assay on N. gonorrhoeae WHO Q was 1 to 2 µg/mL (≈ 1.33 to 2.66 µM); with N. gonorrhoeae WHO M, < 1 µg/mL; in assay [1] it was < 1 µg/mL; in the assay on N. gonorrhoeae CDC-0197 it was 1 to 2 µg/mL (≈ 1.33 to 2.66 µM); in the assay with N. gonorrhoeae WHO X, 4 to 8 µg/mL (≈ 5.31 to 10.6 µM). The half-maximal effective concentration (EC50) in assay [3] was < 10 µM. The IC50 in [4] was < 10 µM.

On to `O=C(O)c1c(F)ccc2c1OB(O)[C@@H](NC(=O)C(NC(=O)N1CCN(Cc3ccc(O)c(O)c3Cl)C1=O)c1ccc(P(=O)(O)O)cc1)C2` (stereo partly drawn) [Example 46, (3R)-3-(2-(3-(2-chloro-3,4-dihydroxybenzyl)-2-oxoimidazolidine-1-carboxamido)-2-(4-phosphonophenyl)acetamido)-7-fluoro-2-hydroxy-3,4-dihydro-2H-benzo[e][1,2]oxaborinine-8-carboxylic acid], for which the MIC in the assay on N. gonorrhoeae WHO Q is < 1 µg/mL; with N. gonorrhoeae WHO M, < 1 µg/mL; in assay [1] it was < 1 µg/mL; in the assay with N. gonorrhoeae CDC-0197 it was < 1 µg/mL; in the assay with N. gonorrhoeae WHO X, 1 to 2 µg/mL (≈ 1.41 to 2.83 µM). The half-maximal effective concentration (EC50) in assay [3] is < 10 µM. Further, the IC50 in assay [4] was < 10 µM.

As for `O=C(N[C@@H](C(=O)N[C@H]1Cc2cccc(C(=O)O)c2OB1O)c1ccc(P(=O)(O)O)cc1)c1ccc(O)c(O)c1Cl` [Example 49, (R)-3-((R)-2-(2-chloro-3,4-dihydroxybenzamido)-2-(4-phosphonophenyl)acetamido)-2-hydroxy-3,4-dihydro-2H-benzo[e][1,2]oxaborinine-8-carboxylic acid], the 50% effective concentration (EC50) in assay [3] was > 250 µM. In addition, the IC50 in [4] was > 250 µM.

On to `O=C(NCCN1CCN(C(=O)NC(C(=O)N[C@H]2Cc3ccc(F)c(C(=O)O)c3OB2O)c2ccc(P(=O)(O)O)cc2)C(=O)C1=O)c1ccc(O)c(O)c1Cl` (stereo partly drawn) [Example 120, (3R)-3-(2-(4-(2-(2-chloro-3,4-dihydroxybenzamido)ethyl)-2,3-dioxopiperazine-1-carboxamido)-2-(4-phosphonophenyl)acetamido)-7-fluoro-2-hydroxy-3,4-dihydro-2H-benzo[e][1,2]oxaborinine-8-carboxylic acid], for which, in assay [3], the EC50 was < 10 µM. For the same compound, in assay [4], the IC50 is < 10 µM.

The EC50 is the concentration giving half of the maximal effect.
